Results published in patent US10253002B2, “Compounds and methods of treating infections” (Neoculi Pty Ltd., priority 2013, dated 2019).
In brackets after ≈: the same amount, converted by molar mass. Where two headings read alike, the source gives them in different places.

Key:
Experiment in all cases: Broth microdilution MIC, Example 7 (NCL812 and analogues)
[1] = test system: MRSA; format: cell-based, Staphylococcus aureus; details: for activity against MRSA among analogues: MIC testing, two MRSA strains; for MIC: Staphylococcus aureus, MRSA
Procedure: (§1) Minimum inhibitory concentrations (μg/ml) were determined using the broth microdilution method recommended by the Clinical and Laboratory Standards Institute (CLSI). MIC breakpoints were determined by visual assessment and then confirmed using an ELISA plate reader, measuring absorbance levels at 600 nm. Bacterial growth (turbidity) in the wells with antimicrobial was compared with the amount of growth (turbidity) in the growth-control well (containing no antimicrobial). All isolates were tested in duplicate, if there was a difference of greater than one two-fold dilution in the results, the test was repeated a third time. The purity of the isolates was closely monitored during testing by subculturing the prepared bacterial inoculum onto SBA (sheep blood agar). […] The MIC50, MIC20 and MIC range (minimum and maximum) were calculated for each of the bacterial groups.
(§2) MICs were determined against two MRSA strains, two VRE strains and one strain each of E. coli and Pseudomonas aeruginosa.

[2] = test system: VRE; format: cell-based, Enterococcus spp.; details: for MIC: Enterococcus, VRE, 24 h
Procedure: as §1, §2

[3] = test system: Escherichia coli; format: cell-based; details: 24 hours; for MIC: Escherichia coli, read-out: MIC (μg/ml) at 24 hours E. coli
[4] = test system: Pseudomonas aeruginosa; format: cell-based; details: for MIC: Pseudomonas aeruginosa, 24 h, read-out: MIC (μg/ml) at 24 hours P. aeruginosa, P. aeruginosa, 24 hours
[5] = 24 h, read-out: MIC (μg/ml) at 24 hours MRSA 1, MRSA 1, 24 hours
[6] = 24 h, read-out: MIC (μg/ml) at 24 hours MRSA 2, MRSA 2, 24 hours
[7] = bioassay ranking, read-out: MRSA
[8] = read-out: MIC (μg/ml) at 24 hours VRE 1, VRE 1, 24 hours
[9] = read-out: MIC (μg/ml) at 24 hours VRE 2, VRE 2, 24 hours
[10] = MRSA 1, 24 hours, duplicate lines per compound
[11] = MRSA 2, 24 hours, duplicate lines per compound
[12] = VRE 1, 24 hours, duplicate lines per compound
[13] = VRE 2, 24 hours, duplicate lines per compound
[14] = E. coli, duplicate lines per compound
[15] = P. aeruginosa, duplicate lines per compound
[16] = isolate MRSA 1, 24 hours, 1st and 2nd replicate rows
[17] = isolate MRSA 2, 24 hours, 1st and 2nd replicate rows
[18] = isolate VRE 1, 24 hours, 1st and 2nd replicate rows
[19] = isolate VRE 2, 24 hours, 1st and 2nd replicate rows

Question: Which “activity against MRSA among analogues” value [1] does the source give for `C/C(=N\Nc1cc(N/N=C(\C)c2ccc(Cl)cc2)nc(N)n1)c1ccc(Cl)cc1` [NCL204] here?
Answer: greatest activity

Question: What about the “MIC (μg/ml) at 24 hours, MRSA 1” value ([1]; MRSA 1, 24 hours) of the same molecule?
Answer: 8 µg/mL (≈ 18.7 µM)

Question: What about the “MIC (μg/ml) at 24 hours, MRSA 2” value ([1]; MRSA 2, 24 hours) of the same molecule?
Answer: 8 µg/mL (≈ 18.7 µM)

Question: And the MIC [1, 5]?
Answer: 4 µg/mL (≈ 9.34 µM)

Question: What about the MIC [1, 6] of the same molecule?
Answer: 4 µg/mL (≈ 9.34 µM)

Question: What about the MIC [1, 7] of the same molecule?
Answer: 6 µg/mL (≈ 14 µM)

Question: What about the MIC [2, 8] of the same molecule?
Answer: 64 µg/mL (≈ 149 µM)

Question: What about the MIC [2, 9] of the same molecule?
Answer: > 128 µg/mL

Question: What about the “activity against VRE among analogues” value ([2]; MIC testing, two VRE strains) of the same molecule?
Answer: greatest activity

Question: And the MIC ([3]; E. coli)?
Answer: > 128 µg/mL

Question: And the MIC [4]?
Answer: > 128 µg/mL

Question: With `CC(=NNC(=N)NN=C(C)c1ccccc1)c1ccccc1.Cl` [NCL 143] as the molecule, how does the “MIC (μg/ml) at 24 hours, MRSA 1” value [1, 10] read?
Answer: 16 µg/mL

Question: What about the “MIC (μg/ml) at 24 hours, MRSA 2” value [1, 11] of the same molecule?
Answer: 16 µg/mL

Question: And the “MIC (μg/ml) at 24 hours, VRE 1” value [2, 12]?
Answer: 8 µg/mL

Question: And the “MIC (μg/ml) at 24 hours, VRE 2” value [2, 13]?
Answer: 8 µg/mL

Question: And the “MIC (μg/ml) at 24 hours, E. coli” value [3, 14]?
Answer: >128 µg/mL

Question: What about the “MIC (μg/ml) at 24 hours, P. aeruginosa” value [4, 15] of the same molecule?
Answer: >128 µg/mL

Question: `CC(=O)Nc1cc(Cl)ccc1C=NNC(=N)NN=Cc1ccc(Cl)cc1NC(C)=O` [NCL 170] was tested. Which “MIC (μg/ml) at 24 hours, MRSA 1” value [1, 10] did it give?
Answer: >128 µg/mL

Question: What about the “MIC (μg/ml) at 24 hours, MRSA 2” value [1, 11] of the same molecule?
Answer: >128 µg/mL

Question: And the “MIC (μg/ml) at 24 hours, VRE 1” value [2, 12]?
Answer: >128 µg/mL

Question: And the “MIC (μg/ml) at 24 hours, VRE 2” value [2, 13]?
Answer: >128 µg/mL

Question: What about the “MIC (μg/ml) at 24 hours, E. coli” value [3, 14] of the same molecule?
Answer: >128 µg/mL

Question: What about the “MIC (μg/ml) at 24 hours, P. aeruginosa” value [4, 15] of the same molecule?
Answer: >128 µg/mL

Question: `Cl.N=C(NN=C(CO)c1ccc(Cl)cc1)NN=C(CO)c1ccc(Cl)cc1` [NCL 177] was tested. Which “MIC (μg/ml) at 24 hours, MRSA 1” value ([1]; MRSA 1, 24 hours) did it give?
Answer: 8 µg/mL

Question: And the “MIC (μg/ml) at 24 hours, MRSA 2” value ([1]; MRSA 2, 24 hours)?
Answer: 8 µg/mL

Question: And the “MIC (μg/ml) at 24 hours, VRE 1” value ([2]; VRE 1, 24 hours)?
Answer: 4 µg/mL

Question: And the “MIC (μg/ml) at 24 hours, VRE 2” value ([2]; VRE 2, 24 hours)?
Answer: 8 µg/mL

Question: What about the “MIC (μg/ml) at 24 hours, E. coli” value ([3]; E. coli) of the same molecule?
Answer: >128 µg/mL

Question: What about the “MIC (μg/ml) at 24 hours, P. aeruginosa” value ([4]; P. aeruginosa) of the same molecule?
Answer: >128 µg/mL

Question: `NC(=O)N/N=C/c1ccc(F)cc1` [NCL056] was tested. Which “MIC (μg/ml) at 24 hours, MRSA 1” value [1, 16] did it give?
Answer: >128 µg/mL

Question: And the “MIC (μg/ml) at 24 hours, MRSA 2” value [1, 17]?
Answer: >128 µg/mL

Question: What about the “MIC (μg/ml) at 24 hours, VRE 1” value [2, 18] of the same molecule?
Answer: >128 µg/mL

Question: And the “MIC (μg/ml) at 24 hours, VRE 2” value [2, 19]?
Answer: >128 µg/mL

Question: And the “MIC (μg/ml) at 24 hours, E. coli” value ([3]; 1st and 2nd replicate rows)?
Answer: >128 µg/mL

Question: And the “MIC (μg/ml) at 24 hours, P. aeruginosa” value ([4]; 1st and 2nd replicate rows)?
Answer: >128 µg/mL

Question: What does the source list for `Cc1ccc(/C=N/Nc2nc(N)nc(N/N=C/c3ccc(C)cc3)n2)cc1` [NCL206]?
Answer: MIC (μg/ml) at 24 hours, MRSA 1 ([1]; MRSA 1, 24 hours): >128 µg/mL; MIC (μg/ml) at 24 hours, MRSA 2 ([1]; MRSA 2, 24 hours): >128 µg/mL; MIC (μg/ml) at 24 hours, VRE 1 ([2]; VRE 1, 24 hours): >128 µg/mL; MIC (μg/ml) at 24 hours, VRE 2 ([2]; VRE 2, 24 hours): >128 µg/mL; MIC (μg/ml) at 24 hours, E. coli ([3]; E. coli): >128 µg/mL; MIC (μg/ml) at 24 hours, P. aeruginosa ([4]; P. aeruginosa): >128 µg/mL

Question: With `Nc1nc(N/N=C/C2CCCCC2)nc(N/N=C/C2CCCCC2)n1` [NCL213] as the molecule, how does the “MIC (μg/ml) at 24 hours, MRSA 1” value ([1]; MRSA 1, 24 hours) read?
Answer: >128 µg/mL

Question: What about the “MIC (μg/ml) at 24 hours, MRSA 2” value ([1]; MRSA 2, 24 hours) of the same molecule?
Answer: >128 µg/mL

Question: And the “MIC (μg/ml) at 24 hours, VRE 1” value ([2]; VRE 1, 24 hours)?
Answer: >128 µg/mL

Question: What about the “MIC (μg/ml) at 24 hours, VRE 2” value ([2]; VRE 2, 24 hours) of the same molecule?
Answer: >128 µg/mL

Question: What about the “MIC (μg/ml) at 24 hours, E. coli” value ([3]; E. coli) of the same molecule?
Answer: >128 µg/mL

Question: What about the “MIC (μg/ml) at 24 hours, P. aeruginosa” value ([4]; P. aeruginosa) of the same molecule?
Answer: >128 µg/mL

Question: Which results are given for `C/C(=N\NC(=N)N/N=C(\C)c1ccc(Br)cc1)c1ccc(Br)cc1.Cl` [NCL 155]?
Answer: MIC (μg/ml) at 24 hours, MRSA 1 [1, 10]: 8 µg/mL; MIC (μg/ml) at 24 hours, MRSA 2 [1, 11]: 8 µg/mL; MIC (μg/ml) at 24 hours, VRE 1 [2, 12]: 16 µg/mL; MIC (μg/ml) at 24 hours, VRE 2 [2, 13]: 8 µg/mL; MIC (μg/ml) at 24 hours, E. coli [3, 14]: >128 µg/mL; MIC (μg/ml) at 24 hours, P. aeruginosa [4, 15]: >128 µg/mL

Question: With `Nc1nc(N/N=C/c2ccccc2)cc(N/N=C/c2ccccc2)n1` [NCL199] as the molecule, how does the “activity against MRSA among analogues” value [1] read?
Answer: greatest activity

Question: What about the “MIC (μg/ml) at 24 hours, MRSA 1” value ([1]; MRSA 1, 24 hours) of the same molecule?
Answer: 4 µg/mL (≈ 12.1 µM)

Question: And the MIC [1, 5]?
Answer: 2 µg/mL (≈ 6.04 µM)

Question: What about the MIC [1, 6] of the same molecule?
Answer: 4 µg/mL (≈ 12.1 µM)

Question: And the MIC [1, 7]?
Answer: 3.5 µg/mL (≈ 10.6 µM)

Question: What about the MIC [2, 8] of the same molecule?
Answer: > 128 µg/mL

Question: What about the MIC [2, 9] of the same molecule?
Answer: > 128 µg/mL

Question: And the MIC ([3]; E. coli)?
Answer: > 128 µg/mL

Question: What about the MIC [4] of the same molecule?
Answer: > 128 µg/mL

Question: `COc1cccc(/C=N/NC(N)=O)c1` [NCL059] was tested. Which “MIC (μg/ml) at 24 hours, MRSA 1” value [1, 16] did it give?
Answer: >128 µg/mL

Question: And the “MIC (μg/ml) at 24 hours, MRSA 2” value [1, 17]?
Answer: >128 µg/mL

Question: What about the “MIC (μg/ml) at 24 hours, VRE 1” value [2, 18] of the same molecule?
Answer: >128 µg/mL

Question: And the “MIC (μg/ml) at 24 hours, VRE 2” value [2, 19]?
Answer: >128 µg/mL

Question: And the “MIC (μg/ml) at 24 hours, E. coli” value ([3]; 1st and 2nd replicate rows)?
Answer: >128 µg/mL

Question: What about the “MIC (μg/ml) at 24 hours, P. aeruginosa” value ([4]; 1st and 2nd replicate rows) of the same molecule?
Answer: >128 µg/mL
